# Source: patent US20260138961A1, “MODULATORS OF MITOCHONDRIAL DNA REPLICATION” (Pretzel Therapeutics, Inc., priority 2022, published 2026)
# Target: T1, POLγA:A467T (Homo sapiens, UniProt P54098, A467T)
# T1 sequence (P54098 1-1239 A467T): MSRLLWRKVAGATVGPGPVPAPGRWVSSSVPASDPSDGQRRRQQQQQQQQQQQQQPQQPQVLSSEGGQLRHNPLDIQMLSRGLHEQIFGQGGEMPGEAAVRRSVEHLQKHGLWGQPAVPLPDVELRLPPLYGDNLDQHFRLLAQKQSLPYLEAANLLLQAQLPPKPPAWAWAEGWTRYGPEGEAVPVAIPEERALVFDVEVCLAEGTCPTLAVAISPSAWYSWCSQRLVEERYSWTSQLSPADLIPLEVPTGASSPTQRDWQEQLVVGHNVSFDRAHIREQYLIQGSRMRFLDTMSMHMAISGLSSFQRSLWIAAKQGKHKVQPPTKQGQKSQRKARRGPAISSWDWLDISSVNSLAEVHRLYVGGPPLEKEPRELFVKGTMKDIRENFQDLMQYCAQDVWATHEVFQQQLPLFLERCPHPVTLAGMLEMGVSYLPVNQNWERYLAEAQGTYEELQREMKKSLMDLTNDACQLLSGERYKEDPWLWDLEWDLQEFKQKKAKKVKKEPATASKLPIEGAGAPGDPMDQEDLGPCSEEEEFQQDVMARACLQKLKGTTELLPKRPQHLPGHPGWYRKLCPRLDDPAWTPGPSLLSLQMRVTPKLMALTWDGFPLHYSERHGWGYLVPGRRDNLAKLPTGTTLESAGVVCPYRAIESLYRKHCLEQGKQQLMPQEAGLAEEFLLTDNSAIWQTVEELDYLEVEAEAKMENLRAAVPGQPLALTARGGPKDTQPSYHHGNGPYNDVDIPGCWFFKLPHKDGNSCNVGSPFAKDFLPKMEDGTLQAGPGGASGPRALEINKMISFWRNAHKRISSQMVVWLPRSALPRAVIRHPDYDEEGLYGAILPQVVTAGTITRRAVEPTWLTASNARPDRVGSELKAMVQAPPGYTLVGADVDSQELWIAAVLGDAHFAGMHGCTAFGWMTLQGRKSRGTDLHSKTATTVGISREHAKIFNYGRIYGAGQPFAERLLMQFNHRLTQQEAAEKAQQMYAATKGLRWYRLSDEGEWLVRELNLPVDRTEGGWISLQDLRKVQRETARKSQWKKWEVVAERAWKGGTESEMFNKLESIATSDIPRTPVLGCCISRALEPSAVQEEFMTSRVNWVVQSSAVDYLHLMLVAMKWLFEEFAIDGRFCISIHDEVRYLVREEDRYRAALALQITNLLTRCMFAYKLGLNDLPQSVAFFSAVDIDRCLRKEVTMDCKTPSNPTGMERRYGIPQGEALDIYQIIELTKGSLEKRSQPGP
# T1 sequence (Q9UHN1 1-485 partner): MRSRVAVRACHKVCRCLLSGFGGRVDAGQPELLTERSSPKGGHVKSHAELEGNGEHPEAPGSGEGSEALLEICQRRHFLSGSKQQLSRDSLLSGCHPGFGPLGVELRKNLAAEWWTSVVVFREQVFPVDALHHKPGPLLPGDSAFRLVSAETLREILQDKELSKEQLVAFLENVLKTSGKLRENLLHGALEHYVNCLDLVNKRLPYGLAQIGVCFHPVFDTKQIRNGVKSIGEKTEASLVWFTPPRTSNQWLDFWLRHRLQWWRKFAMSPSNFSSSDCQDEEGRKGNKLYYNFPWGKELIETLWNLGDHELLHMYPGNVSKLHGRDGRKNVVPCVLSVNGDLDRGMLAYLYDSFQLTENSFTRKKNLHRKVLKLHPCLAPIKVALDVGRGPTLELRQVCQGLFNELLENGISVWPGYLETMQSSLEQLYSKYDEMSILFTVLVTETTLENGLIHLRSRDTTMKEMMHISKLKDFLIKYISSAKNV
# Assay: DNA polymerization assay, POLγA:A467T mutant
# Format: biochemical
# Conditions: stimulation of polymerase activity, primed M13mp18 ssDNA, 37° C. 2 hours; read-out: A467T AC50
row,SMILES,AC50 [µM]
1,"Cc1cc(S(=O)(=O)Nc2ccc3ccn(C(C)C)c3c2)c(C)cc1Cl [Example 69, 4-chloro-N-(1-isopropyl-1H-indol-6-yl)-2,5-dimethylbenzenesulfonamide]",17
2,"COc1ccccc1-c1nc(NS(=O)(=O)c2cc(C)c(Cl)cc2C)cs1 [Example 155, 4-chloro-N-(2-(2-methoxyphenyl)thiazol-4-yl)-2,5-dimethylbenzenesulfonamide]",> 100
3,"Cc1cnc(-c2cccc(NS(=O)(=O)c3cc(C)c(Cl)cc3C)c2)s1 [Example 21, 4-chloro-2,5-dimethyl-N-(3-(5-methylthiazol-2-yl)phenyl)benzenesulfonamide]",3
4,"Cc1cc(S(=O)(=O)Nc2cc(F)cc(-c3nccs3)c2)c(C)cc1Cl [Example 62, 4-chloro-N-(3-fluoro-5-(thiazol-2-yl)phenyl)-2,5-dimethylbenzenesulfonamide]",> 100
5,"N#CC1CSCCN1C(=O)c1cccc(NS(=O)(=O)c2cccc(C(F)(F)F)c2)c1 (stereo not shown) [Example 35, N-(3-(3-cyanothiomorpholine-4-carbonyl)phenyl)-3-(trifluoromethyl)benzenesulfonamide]",> 100
6,"Cc1cc(S(=O)(=O)Nc2cccc(C(=O)N3CCNCC3)c2)c(C)cc1Cl [Example 46, 4-chloro-2,5-dimethyl-N-(3-(piperazine-1-carbonyl)phenyl)benzenesulfonamide]",> 100
7,"Cc1ccc(C)c(S(=O)(=O)Nc2ccc(C(=O)NCC3CC3)cc2)c1 [Example 40, N-(cyclopropylmethyl)-4-((2,5-dimethylphenyl)sulfonamido)benzamide]",> 100
8,"Cc1cc(S(=O)(=O)Nc2cccc(C(=O)N3CCN(CCO)CC3)c2)c(C)cc1Cl [Example 55, 4-chloro-N-(3-(4-(2-hydroxyethyl)piperazine-1-carbonyl)phenyl)-2,5-dimethylbenzenesulfonamide]",> 100
9,"Cc1ccc(C)c(S(=O)(=O)Nc2cncc(C(=O)N3CCOCC3)c2)c1 [Example 38, 2,5-dimethyl-N-(5-(morpholine-4-carbonyl)pyridin-3-yl)benzenesulfonamide]",> 100

# Now from value to compound:
row,AC50 [µM],SMILES
1,2,"Cc1cc(S(=O)(=O)Nc2csc(C(=O)N3CCCC3)n2)c(C)cc1Cl [Example 166, 4-chloro-2,5-dimethyl-N-(2-(pyrrolidine-1-carbonyl)thiazol-4-yl)benzenesulfonamide]"
2,> 10,"Cc1cc(S(=O)(=O)Nc2csc(C(=O)N(C)CC(N)=O)n2)c(C)cc1Cl [Example 172, N-(2-amino-2-oxoethyl)-4-((4-chloro-2,5-dimethylphenyl)sulfonamido)-N-methylthiazole-2-carboxamide]"
3,> 100,"Cc1cc(S(=O)(=O)Nc2nc(-c3ccccc3)cn2C)c(C)cc1Cl [Example 159, 4-chloro-2,5-dimethyl-N-(1-methyl-4-phenyl-1H-imidazol-2-yl)benzenesulfonamide]"
4,> 10,"Cc1cc(S(=O)(=O)Nc2csc(-c3ccn(C)n3)n2)c(C)cc1Cl [Example 181, 4-chloro-2,5-dimethyl-N-(2-(1-methyl-1H-pyrazol-3-yl)thiazol-4-yl)benzenesulfonamide]"
5,> 100,"Cc1cc(S(=O)(=O)N[C@H]2CCCN(c3ccccc3)C2)c(C)cc1Cl [Example 161, (S)-4-chloro-2,5-dimethyl-N-(1-phenylpiperidin-3-yl)benzenesulfonamide]"
6,2,"Cc1cc(S(=O)(=O)Nc2csc(-c3ccccn3)n2)c(C)cc1Cl [Example 173, 4-chloro-2,5-dimethyl-N-(2-(pyridin-2-yl)thiazol-4-yl)benzenesulfonamide]"
7,1,"COc1cccc(-c2nc(NS(=O)(=O)c3cc(C)c(Cl)cc3C)cs2)c1 [Example 165, 4-chloro-N-(2-(3-methoxyphenyl)thiazol-4-yl)-2,5-dimethylbenzenesulfonamide]"
